Measured values from the supplement of paper PMC11451515.

Columns and labels:
Conditions in all cases: 48 h
NOMO1 [1] = assay: cell viability relative to DMSO control; higher = less cytotoxic
How it was run: (§1)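 Library compounds in DMSO were pin-dosed into 1536-well plates (5 μl) holding NOMO1 or SEM (500 cells/well) or P12-Ichikawa (1000 cells/well) leukemia cells, across an 11-point threefold series of 47 μM to 0.79 nM. Each cell line had been adapted for at least four passages in each medium. CellTiter-Glo One luminescence was read after 48 h at 37°C. Viability is the per-plate percentage relative to DMSO wells, with cell-free wells as background.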

P12-Ichikawa [2] = assay: as above
How it was run: as §1

SEM cells [3] = assay: as above
How it was run: as §1

NOMO1 [4] = assay: AUC of viability dose-response curve (% viability x log10 dose units); higher = less sensitive
How it was run: (§2)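 Leukemia cells adapted to each medium (500 or 1000 cells/well, 1536-well plates) were exposed to library compounds in DMSO for 48 h at 37°C at 11 threefold doses, 47 μM to 0.79 nM. Luminescence by CellTiter-Glo One was normalised per plate to DMSO and cell-free wells, then fitted with a four-parameter log-logistic curve on log10 dose. Curves above full viability were scaled and quality-control failures removed before area under the curve was integrated by trapezoidal rule.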

P12-Ichikawa [5] = assay: as above
How it was run: as §2

SEM cells [6] = assay: as above
How it was run: as §2

[7] = HPLM + 10% dialyzed FBS, 0.000781 µM
[8] = HPLM + 10% dialyzed FBS, 0.00234 µM
[9] = HPLM + 10% dialyzed FBS, 0.00702 µM
[10] = HPLM + 10% dialyzed FBS, 0.0211 µM
[11] = HPLM + 10% dialyzed FBS, 0.0632 µM
[12] = HPLM + 10% dialyzed FBS, 0.19 µM
[13] = HPLM + 10% dialyzed FBS, 0.569 µM
[14] = HPLM + 10% dialyzed FBS, 1.71 µM
[15] = HPLM + 10% dialyzed FBS, 5.12 µM
[16] = HPLM + 10% dialyzed FBS, 15.4 µM
[17] = HPLM + 10% dialyzed FBS, 46.1 µM
[18] = RPMI 5 mM glucose + 10% FBS, 0.000781 µM
[19] = RPMI 5 mM glucose + 10% FBS, 0.00234 µM
[20] = RPMI 5 mM glucose + 10% FBS, 0.00702 µM
[21] = RPMI 5 mM glucose + 10% FBS, 0.0211 µM
[22] = RPMI 5 mM glucose + 10% FBS, 0.0632 µM
[23] = RPMI 5 mM glucose + 10% FBS, 0.19 µM
[24] = RPMI 5 mM glucose + 10% FBS, 0.569 µM
[25] = RPMI 5 mM glucose + 10% FBS, 1.71 µM
[26] = RPMI 5 mM glucose + 10% FBS, 5.12 µM
[27] = RPMI 5 mM glucose + 10% FBS, 15.4 µM
[28] = RPMI 5 mM glucose + 10% FBS, 46.1 µM
[29] = RPMI 5 mM glucose + 10% dialyzed FBS, 0.000781 µM
[30] = RPMI 5 mM glucose + 10% dialyzed FBS, 0.00234 µM
[31] = RPMI 5 mM glucose + 10% dialyzed FBS, 0.00702 µM
[32] = RPMI 5 mM glucose + 10% dialyzed FBS, 0.0211 µM
[33] = RPMI 5 mM glucose + 10% dialyzed FBS, 0.0632 µM
[34] = RPMI 5 mM glucose + 10% dialyzed FBS, 0.19 µM
[35] = RPMI 5 mM glucose + 10% dialyzed FBS, 0.569 µM
[36] = RPMI 5 mM glucose + 10% dialyzed FBS, 1.71 µM
[37] = RPMI 5 mM glucose + 10% dialyzed FBS, 5.12 µM
[38] = RPMI 5 mM glucose + 10% dialyzed FBS, 15.4 µM
[39] = RPMI 5 mM glucose + 10% dialyzed FBS, 46.1 µM
[40] = RPMI 5 mM glucose + 10% dialyzed FBS

Compound: CN(C(Cc1ccc(O[S+](=O)([O-])c2cccc3cnccc23)cc1)C(=O)N1CCN(c2ccccc2)CC1)[S+](=O)([O-])c1cccc2cnccc12 (stereo not drawn)
- cell viability (NOMO1 [1]; [7]): 127%
- cell viability (NOMO1 [1]; [8]): 98.3%
- cell viability (NOMO1 [1]; [9]): 109%
- cell viability (NOMO1 [1]; [10]): 113%
- cell viability (NOMO1 [1]; [11]): 103%
- cell viability (NOMO1 [1]; [12]): 120%
- cell viability (NOMO1 [1]; [13]): 132%
- cell viability (NOMO1 [1]; [14]): 95.2%
- cell viability (NOMO1 [1]; [15]): 105%
- cell viability (NOMO1 [1]; [16]): 77%
- cell viability (NOMO1 [1]; [17]): 48.4%
- cell viability (NOMO1 [1]; [18]): 93.8%
- cell viability (NOMO1 [1]; [19]): 81.5%
- cell viability (NOMO1 [1]; [20]): 95.8%
- cell viability (NOMO1 [1]; [21]): 101%
- cell viability (NOMO1 [1]; [22]): 93.8%
- cell viability (NOMO1 [1]; [23]): 86.3%
- cell viability (NOMO1 [1]; [24]): 95.2%
- cell viability (NOMO1 [1]; [25]): 82.6%
- cell viability (NOMO1 [1]; [26]): 91.4%
- cell viability (NOMO1 [1]; [27]): 82.5%
- cell viability (NOMO1 [1]; [28]): 66.3%
- cell viability (NOMO1 [1]; [29]): 82.5%
- cell viability (NOMO1 [1]; [30]): 97.7%
- cell viability (NOMO1 [1]; [31]): 99.8%
- cell viability (NOMO1 [1]; [32]): 94.5%
- cell viability (NOMO1 [1]; [33]): 89.2%
- cell viability (NOMO1 [1]; [34]): 101%
- cell viability (NOMO1 [1]; [35]): 93.9%
- cell viability (NOMO1 [1]; [36]): 98.4%
- cell viability (NOMO1 [1]; [37]): 93.8%
- cell viability (NOMO1 [1]; [38]): 81.6%
- cell viability (NOMO1 [1]; [39]): 56.1%
- cell viability (P12-Ichikawa [2]; [7]): 102%
- cell viability (P12-Ichikawa [2]; [8]): 103%
- cell viability (P12-Ichikawa [2]; [9]): 106%
- cell viability (P12-Ichikawa [2]; [10]): 110%
- cell viability (P12-Ichikawa [2]; [11]): 114%
- cell viability (P12-Ichikawa [2]; [12]): 105%
- cell viability (P12-Ichikawa [2]; [13]): 114%
- cell viability (P12-Ichikawa [2]; [14]): 102%
- cell viability (P12-Ichikawa [2]; [15]): 93.1%
- cell viability (P12-Ichikawa [2]; [16]): 89.2%
- cell viability (P12-Ichikawa [2]; [17]): 70.5%
- cell viability (P12-Ichikawa [2]; [18]): 107%
- cell viability (P12-Ichikawa [2]; [19]): 110%
- cell viability (P12-Ichikawa [2]; [20]): 109%
- cell viability (P12-Ichikawa [2]; [21]): 106%
- cell viability (P12-Ichikawa [2]; [22]): 108%
- cell viability (P12-Ichikawa [2]; [23]): 103%
- cell viability (P12-Ichikawa [2]; [24]): 103%
- cell viability (P12-Ichikawa [2]; [25]): 97.7%
- cell viability (P12-Ichikawa [2]; [26]): 90.6%
- cell viability (P12-Ichikawa [2]; [27]): 71.8%
- cell viability (P12-Ichikawa [2]; [28]): 57.3%
- cell viability (P12-Ichikawa [2]; [29]): 104%
- cell viability (P12-Ichikawa [2]; [30]): 108%
- cell viability (P12-Ichikawa [2]; [31]): 105%
- cell viability (P12-Ichikawa [2]; [32]): 121%
- cell viability (P12-Ichikawa [2]; [33]): 109%
- cell viability (P12-Ichikawa [2]; [34]): 105%
- cell viability (P12-Ichikawa [2]; [35]): 113%
- cell viability (P12-Ichikawa [2]; [36]): 97.8%
- cell viability (P12-Ichikawa [2]; [37]): 102%
- cell viability (P12-Ichikawa [2]; [38]): 84.8%
- cell viability (P12-Ichikawa [2]; [39]): 58.7%
- cell viability (SEM cells [3]; [7]): 102%
- cell viability (SEM cells [3]; [8]): 110%
- cell viability (SEM cells [3]; [9]): 112%
- cell viability (SEM cells [3]; [10]): 105%
- cell viability (SEM cells [3]; [11]): 110%
- cell viability (SEM cells [3]; [12]): 108%
- cell viability (SEM cells [3]; [13]): 114%
- cell viability (SEM cells [3]; [14]): 95.3%
- cell viability (SEM cells [3]; [15]): 94.6%
- cell viability (SEM cells [3]; [16]): 74.2%
- cell viability (SEM cells [3]; [17]): 39.1%
- cell viability (SEM cells [3]; [18]): 120%
- cell viability (SEM cells [3]; [19]): 110%
- cell viability (SEM cells [3]; [20]): 108%
- cell viability (SEM cells [3]; [21]): 109%
- cell viability (SEM cells [3]; [22]): 108%
- cell viability (SEM cells [3]; [23]): 99.7%
- cell viability (SEM cells [3]; [24]): 108%
- cell viability (SEM cells [3]; [25]): 96.9%
- cell viability (SEM cells [3]; [26]): 95%
- cell viability (SEM cells [3]; [27]): 46.2%
- cell viability (SEM cells [3]; [28]): 22.9%
- cell viability (SEM cells [3]; [29]): 110%
- cell viability (SEM cells [3]; [30]): 120%
- cell viability (SEM cells [3]; [31]): 100%
- cell viability (SEM cells [3]; [32]): 119%
- cell viability (SEM cells [3]; [33]): 114%
- cell viability (SEM cells [3]; [34]): 120%
- cell viability (SEM cells [3]; [35]): 114%
- cell viability (SEM cells [3]; [36]): 110%
- cell viability (SEM cells [3]; [37]): 90.3%
- cell viability (SEM cells [3]; [38]): 67.1%
- cell viability (SEM cells [3]; [39]): 34.5%
- AUC of viability dose-response curve (NOMO1 [4]; HPLM + 10% dialyzed FBS): 442
- AUC of viability dose-response curve (NOMO1 [4]; RPMI 5 mM glucose + 10% FBS): 425
- AUC of viability dose-response curve (NOMO1 [4]; [40]): 436
- AUC of viability dose-response curve (P12-Ichikawa [5]; HPLM + 10% dialyzed FBS): 452
- AUC of viability dose-response curve (P12-Ichikawa [5]; RPMI 5 mM glucose + 10% FBS): 434
- AUC of viability dose-response curve (P12-Ichikawa [5]; [40]): 450
- AUC of viability dose-response curve (SEM cells [6]; HPLM + 10% dialyzed FBS): 436
- AUC of viability dose-response curve (SEM cells [6]; RPMI 5 mM glucose + 10% FBS): 424
- AUC of viability dose-response curve (SEM cells [6]; [40]): 428
